Experimental data published in paper PMC6067974 (Neuropharmacology, 2018).
Read-outs that look alike come from different tables or passages of the source. Marks after values point to notes of the source that are not given here.

Key:
mouse A1AR [1] = biological target: T1, mouse A1AR (Mus musculus, UniProt Q60612); experiment: Radioligand binding, mouse A1AR; settings: for A1AR rat: mouse ratio: ratio of rat Ki to mouse Ki at A1AR
T1 sequence (Q60612 1-326): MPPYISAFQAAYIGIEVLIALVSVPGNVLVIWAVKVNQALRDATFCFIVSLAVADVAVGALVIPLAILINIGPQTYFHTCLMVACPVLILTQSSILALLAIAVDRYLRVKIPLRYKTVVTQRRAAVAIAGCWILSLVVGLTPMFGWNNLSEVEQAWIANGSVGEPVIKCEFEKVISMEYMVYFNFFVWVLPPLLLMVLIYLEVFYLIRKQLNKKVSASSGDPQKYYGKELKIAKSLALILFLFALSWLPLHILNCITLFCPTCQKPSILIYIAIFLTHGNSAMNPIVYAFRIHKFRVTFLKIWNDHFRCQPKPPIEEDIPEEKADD

mouse A2AAR = mouse A2AAR (Mus musculus, UniProt Q60613); experiment: Radioligand binding, mouse A2AAR
mouse A3AR [2] = biological target: T2, mouse A3AR (Mus musculus, UniProt Q61618); experiment: Radioligand binding, mouse A3AR
T2 sequence (Q61618 1-319): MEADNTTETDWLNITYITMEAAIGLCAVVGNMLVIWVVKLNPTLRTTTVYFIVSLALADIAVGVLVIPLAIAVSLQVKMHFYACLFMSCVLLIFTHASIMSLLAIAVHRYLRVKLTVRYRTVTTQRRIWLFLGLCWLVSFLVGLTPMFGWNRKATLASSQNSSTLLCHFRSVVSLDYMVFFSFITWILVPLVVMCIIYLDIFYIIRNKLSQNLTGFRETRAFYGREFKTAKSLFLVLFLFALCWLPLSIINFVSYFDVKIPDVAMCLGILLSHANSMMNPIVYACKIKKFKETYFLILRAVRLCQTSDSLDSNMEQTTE

mice [3] = experiment: Telemetric monitoring of Tb and physical activity in mice; assay type: in vivo, mouse; settings: for block of PSB-0777-induced hypothermia: i.p. at -15 min, then PSB-0777 1 mg/kg i.p.
A2BAR [4] = settings: rat; ref Hide et al., 1992; cited from earlier work
A1AR = settings: cited from earlier work
[5] = system: 45 human receptors, channels, and transporters; experiment: PDSP off-target screen, whole panel; assay type: binding; settings: at <10 μM
mice [6] = settings: cited from earlier work
mice [7] = settings: intraarterial CGS-21680; wild type mice; ref Ledent et al., 1997; cited from earlier work
[8] = cited from earlier work
mice [9] = experiment: Indirect calorimetry; settings: CGS-21680 0.25 mg/kg, i.p.; C57BL/6J mice
mouse A1AR [10] = biological target: T1, mouse A1AR; settings: ref Carlin et al., 2017, cited from earlier work
[11] = biological target: human β1 adrenergic receptor (Homo sapiens, UniProt P08588); settings: read-out: Ki, human β1 adrenergic receptor; PDSP screen
[12] = biological target: human β3 adrenergic receptor (Homo sapiens, UniProt P13945); settings: read-out: Ki, human β3 adrenergic receptor; PDSP screen
A2BAR [13] = settings: read-out: Ki, A2BAR (h), human, cited from earlier work
brown adipose tissue = settings: by stimulation of brown adipose tissue; ref Gnad et al., 2014; cited from earlier work
human 5HT2B receptor = human 5HT2B receptor (Homo sapiens, UniProt P41595); experiment: PDSP off-target radioligand binding, 5HT2B receptor
[14] = biological target: M3 acetylcholine receptor (Homo sapiens, UniProt P20309); experiment: PDSP off-target radioligand binding, M3 acetylcholine receptor
[15] = biological target: serotonin transporter (SERT) (Homo sapiens, UniProt P31645); experiment: PDSP off-target radioligand binding, serotonin transporter
mouse A3AR [16] = biological target: T2, mouse A3AR; settings: read-out: mouse Ki, A3AR, ref Carlin et al., 2017; cited from earlier work
[17] = read-out: mouse Ki, A1AR, mouse, current results, ± SEM
[18] = read-out: mouse Ki, A2AAR, mouse, current results, ± SEM
[19] = CGS-21680 0.01–1 mg/kg, i.p., C57BL/6J mice
[20] = PSB-0777 ≤3 mg/kg, i.p., wild type mice
[21] = SCH442416 3 mg/kg, i.p., alone, data not shown
[22] = preladenant 1 mg/kg, i.p., alone, data not shown

Chain of mouse A2AAR (Q60613 whole entry): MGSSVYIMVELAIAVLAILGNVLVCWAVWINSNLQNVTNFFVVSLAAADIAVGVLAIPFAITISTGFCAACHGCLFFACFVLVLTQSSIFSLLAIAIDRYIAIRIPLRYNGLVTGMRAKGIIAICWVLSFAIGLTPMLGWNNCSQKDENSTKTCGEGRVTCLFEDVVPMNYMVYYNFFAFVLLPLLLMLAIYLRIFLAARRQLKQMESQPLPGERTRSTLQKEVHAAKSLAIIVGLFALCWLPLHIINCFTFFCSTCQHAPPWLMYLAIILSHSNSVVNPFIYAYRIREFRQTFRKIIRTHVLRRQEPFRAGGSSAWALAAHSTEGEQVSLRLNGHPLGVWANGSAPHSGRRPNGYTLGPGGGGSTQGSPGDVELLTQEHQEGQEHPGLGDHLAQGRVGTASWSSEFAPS
Chain of human β3 adrenergic receptor (P13945 whole entry): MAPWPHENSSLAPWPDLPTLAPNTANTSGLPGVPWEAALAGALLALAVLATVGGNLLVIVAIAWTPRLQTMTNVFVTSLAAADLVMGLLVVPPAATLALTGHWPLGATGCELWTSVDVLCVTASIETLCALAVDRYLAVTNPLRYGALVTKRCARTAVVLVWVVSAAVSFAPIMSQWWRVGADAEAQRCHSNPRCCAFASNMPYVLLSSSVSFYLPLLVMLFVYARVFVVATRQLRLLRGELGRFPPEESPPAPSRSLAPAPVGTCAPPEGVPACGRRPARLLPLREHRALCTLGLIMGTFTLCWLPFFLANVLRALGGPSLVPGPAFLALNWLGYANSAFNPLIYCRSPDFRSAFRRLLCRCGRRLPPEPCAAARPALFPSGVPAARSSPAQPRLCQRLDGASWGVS
Chain of serotonin transporter (SERT) (P31645 whole entry): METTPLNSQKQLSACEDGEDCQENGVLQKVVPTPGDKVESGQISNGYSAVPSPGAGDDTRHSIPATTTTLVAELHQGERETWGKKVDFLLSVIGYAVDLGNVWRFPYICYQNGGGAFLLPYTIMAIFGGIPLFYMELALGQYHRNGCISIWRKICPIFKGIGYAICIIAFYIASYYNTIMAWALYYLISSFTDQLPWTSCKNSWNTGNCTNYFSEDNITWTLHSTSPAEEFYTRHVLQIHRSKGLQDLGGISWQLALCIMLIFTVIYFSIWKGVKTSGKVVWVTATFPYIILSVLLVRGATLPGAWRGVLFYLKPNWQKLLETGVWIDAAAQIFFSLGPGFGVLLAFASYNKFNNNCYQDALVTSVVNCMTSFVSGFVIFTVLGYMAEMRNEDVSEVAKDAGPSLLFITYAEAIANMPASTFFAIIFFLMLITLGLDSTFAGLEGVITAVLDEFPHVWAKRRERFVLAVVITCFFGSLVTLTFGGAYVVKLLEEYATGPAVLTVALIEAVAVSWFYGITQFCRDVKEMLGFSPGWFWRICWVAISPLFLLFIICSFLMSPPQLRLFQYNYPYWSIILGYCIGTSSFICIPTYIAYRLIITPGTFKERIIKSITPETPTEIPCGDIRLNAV
Chain of M3 acetylcholine receptor (P20309 whole entry): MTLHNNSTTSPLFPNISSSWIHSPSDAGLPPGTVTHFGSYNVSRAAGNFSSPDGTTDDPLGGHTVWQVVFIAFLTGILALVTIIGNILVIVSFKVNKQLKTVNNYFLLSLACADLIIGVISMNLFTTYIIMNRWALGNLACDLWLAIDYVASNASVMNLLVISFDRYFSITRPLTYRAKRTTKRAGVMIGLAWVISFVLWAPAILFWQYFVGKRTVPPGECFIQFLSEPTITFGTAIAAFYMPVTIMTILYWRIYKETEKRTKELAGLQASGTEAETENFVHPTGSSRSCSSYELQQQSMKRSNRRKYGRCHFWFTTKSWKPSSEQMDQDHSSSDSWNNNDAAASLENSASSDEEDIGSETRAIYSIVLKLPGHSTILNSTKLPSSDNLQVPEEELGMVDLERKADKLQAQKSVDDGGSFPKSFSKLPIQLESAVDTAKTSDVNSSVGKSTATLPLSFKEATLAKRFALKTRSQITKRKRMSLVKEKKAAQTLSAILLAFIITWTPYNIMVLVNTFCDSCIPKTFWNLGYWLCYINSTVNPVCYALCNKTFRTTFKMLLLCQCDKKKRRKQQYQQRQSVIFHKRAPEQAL
Chain of human β1 adrenergic receptor (P08588 whole entry): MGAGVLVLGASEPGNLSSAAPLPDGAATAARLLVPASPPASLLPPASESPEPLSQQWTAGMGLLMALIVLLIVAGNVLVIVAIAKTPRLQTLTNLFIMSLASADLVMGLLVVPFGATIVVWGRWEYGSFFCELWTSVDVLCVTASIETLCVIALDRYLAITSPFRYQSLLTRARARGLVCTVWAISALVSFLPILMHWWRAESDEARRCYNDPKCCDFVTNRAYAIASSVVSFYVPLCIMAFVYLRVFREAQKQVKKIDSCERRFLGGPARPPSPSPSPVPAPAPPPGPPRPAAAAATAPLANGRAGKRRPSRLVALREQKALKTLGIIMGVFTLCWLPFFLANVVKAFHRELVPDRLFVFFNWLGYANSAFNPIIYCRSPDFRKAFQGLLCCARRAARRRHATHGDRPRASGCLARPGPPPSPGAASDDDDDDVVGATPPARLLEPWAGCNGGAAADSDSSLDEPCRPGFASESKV
Chain of human 5HT2B receptor (P41595 whole entry): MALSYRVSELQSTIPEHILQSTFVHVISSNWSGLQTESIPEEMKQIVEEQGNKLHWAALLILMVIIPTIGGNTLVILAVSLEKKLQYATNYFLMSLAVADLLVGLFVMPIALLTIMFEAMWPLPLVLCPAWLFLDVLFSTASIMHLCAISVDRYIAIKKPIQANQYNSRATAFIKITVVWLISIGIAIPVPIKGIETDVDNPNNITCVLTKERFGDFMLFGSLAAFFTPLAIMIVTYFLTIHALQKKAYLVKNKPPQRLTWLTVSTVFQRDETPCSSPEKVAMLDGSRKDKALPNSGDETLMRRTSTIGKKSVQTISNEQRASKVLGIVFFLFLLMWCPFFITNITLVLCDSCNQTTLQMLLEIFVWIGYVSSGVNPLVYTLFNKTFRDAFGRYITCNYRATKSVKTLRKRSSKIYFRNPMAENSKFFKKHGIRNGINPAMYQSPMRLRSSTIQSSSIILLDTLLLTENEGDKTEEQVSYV

SMILES: CCNC(=O)[C@H]1O[C@@H](n2cnc3c(N)nc(NCCc4ccc(CCC(=O)NCCN)cc4)nc32)[C@H](O)[C@@H]1O [APEC, 2-[[2-[4-[2-(2-aminoethyl)-aminocarbonyl]ethyl]phenyl]ethylamino]-5′-N-ethyl-carboxamidoadenosine]
- binding to mouse A1AR better than rat A1AR (mouse A1AR [1]; mouse vs rat A1AR): ~ 100 fold
- A1AR rat: mouse ratio (mouse A1AR [1]): 95
- Ki (mouse A1AR [1]; [17]): 4.17 ± 0.15 nM
- Ki (mouse A2AAR; [18]): 3.57 ± 0.22 nM
- Ki (mouse A3AR [2]; read-out: mouse Ki, A3AR, mouse, current results, ± SEM): 55.1 ± 4.3 nM
- Tb response (mice [3]; APEC 1.7 μg/kg i.p.): blunting the handling hyperthermia
- Tb response (hypothermia) (mice [3]; APEC 50 μg/kg i.p.): robust hypothermia
- physical activity (mice [3]; APEC 50 μg/kg i.p.): hypoactivity
- Tb response (hypothermia) (mice [3]; APEC i.p., Adora1−/−;Adora3−/− mice): attenuated
- Tb response (hypothermia) (mice [3]; APEC i.p., Adora2a−/− mice): attenuated
- Tb response (hypothermia) (mice [3]; APEC i.p., Adora2b−/− mice): fully intact
- A2BAR (r) activity (A2BAR [4]): inactive (r) ^h
- Ki (A1AR; read-out: rat Ki, A1AR, ref Kim et al., 1994): 400 nM

SMILES: CCNC(=O)[C@H]1O[C@@H](n2cnc3c(N)nc(NCCc4ccc(CCC(=O)O)cc4)nc32)[C@H](O)[C@@H]1O [CGS-21680, 2-[p-(2-carboxyethyl)phenethylamino]-5′-N-ethylcarboxamidoadenosine]
- off-target activities detected [5]: none
- Tb response (hypothermia) (mice [3]; CGS-21680 0.01 mg/kg i.c.v., C57BL/6J mice): No hypothermia
- Tb response (hypothermia) (mice [3]; CGS-21680 0.5 mg/kg, i.p., Adora1−/−;Adora3−/− mice): intact
- Tb response (hypothermia) (mice [3]; CGS-21680 0.5 mg/kg, i.p., Adora2a−/− mice): did not cause hypothermia
- Tb response (hypothermia) (mice [3]; CGS-21680 0.5 mg/kg, i.p., KitW−sh/W−sh mice (lack mast cells)): showed a hypothermic response
- Tb response (hypothermia) (mice [3]; [19]): dose-dependent hypothermia
- physical activity (mice [3]; [19]): hypoactivity
- hypothermia (mice [6]; CGS-21680, high i.c.v. dose, ref Anderson et al., 1994): mild hypothermia
- hypothermia (mice [6]; CGS-21680, peripheral dosing, ref Eisner et al., 2017): mild hypothermia
- blood pressure (mice [7]): caused hypotension
- brain penetrant ([8]; ref Nikodijevic et al., 1990): no ^d
- food intake (mice [9]): reduced food intake
- metabolic rate (total energy expenditure) (mice [9]): marked reduction in metabolic rate
- time of Tb nadir (mice [9]): ~ 65 minutes
- time of energy expenditure nadir (mice [9]): ~ 26 minutes

SMILES: CCN(CC)CC.Nc1nc2c(cnn2CCCc2ccc(OCc3ccc(S(=O)(=O)O)cc3)cc2)c2nc(-c3ccco3)nn12 [MRS7352, 4-((4-(3-(5-amino-2-(furan-2-yl)-7H-pyrazolo[4,3-e][1,2,4]triazolo[1,5-c]pyrimidin-7-yl)propyl)phenoxy)methyl)benzenesulfonate triethylammonium salt]
- physical activity (mice [3]; MRS7352 3 mg/kg, i.p.): without affecting physical activity
- block of PSB-0777-induced hypothermia (mice [3]; MRS7352 3 mg/kg): completely blocked

SMILES: OC[C@H]1O[C@@H](n2cnc3c(NC4CCCC4)ncnc32)[C@H](O)[C@@H]1O [N^6-cyclopentyladenosine]
- advantage in binding affinity (A1AR vs A3AR) (mouse A1AR [10]; A1AR vs A3AR): 2000 fold

SMILES: N.Nc1nc(SCCc2ccc(S(=O)(=O)O)cc2)nc2c1ncn2[C@@H]1O[C@H](CO)[C@@H](O)[C@H]1O [PSB-0777, 4-[2-[(6-Amino-9-b-D-ribofuranosyl-9H-purin-2-yl)thio]ethyl]benzenesulfonic acid ammonium salt]
- A1AR rat: mouse ratio (mouse A1AR [1]): >500
- Ki (mouse A1AR [1]; [17]): 18.4 ± 1.1 nM
- Ki (mouse A2AAR; [18]): 193 ± 28 nM
- % inhibition at 10 μM, mouse A3AR (mouse A3AR [2]; mouse, 10 μM, current results, ± SEM): 26 ± 1% ^e
- Tb response (hypothermia) (mice [3]; PSB-0777 i.p., Adora2a−/− mice): abolished
- Tb response (hypothermia) (mice [3]; [20]): dose-dependent hypothermia
- physical activity (mice [3]; [20]): hypoactivity
- Ki [11]: 4400 nM
- Ki [12]: 3300 nM
- Ki (A2BAR [13]; ref El-Tayeb et al., 2011): > 10000 nM
- Ki (A1AR; read-out: rat Ki, A1AR, ref El-Tayeb et al., 2011): ≥ 10000 nM
- energy expenditure (brown adipose tissue): increased energy expenditure

SMILES: COc1ccc(CCCn2ncc3c2nc(N)n2nc(-c4ccco4)nc32)cc1 [SCH442416, 2-(2-furyl)-7-[3-(4-methoxyphenyl)propyl]-7H-pyrazolo[4,3-e][1,2,4]triazolo[1,5-c]pyrimidin-5-amine]
- Ki (human 5HT2B receptor): 910 nM
- Ki [14]: 6800 nM
- Ki [15]: 6100 nM
- block of PSB-0777-induced hypothermia (mice [3]; SCH442416 0.6 mg/kg): largely blocked
- physical activity (mice [3]; SCH442416 0.6 mg/kg, i.p., by itself, p=0.078): trended to increase activity
- Tb (mice [3]; SCH442416 0.6 mg/kg, i.p., by itself, p=0.10): trended to increase
- Tb (mice [3]; [21]): increase in Tb
- locomotor activity (mice [3]; [21]): increased locomotor activity
- Ki (mouse A1AR [10]; read-out: mouse Ki, A1AR, mouse): 765 nM
- Ki (mouse A3AR [16]): > 10000 nM
- Ki (A2BAR [13]; ref Todde et al., 2000): > 10000 nM
- Ki (A1AR; read-out: rat Ki, A1AR, ref Todde et al., 2000): 1820 nM
- brain penetrant ([8]; ref Todde et al., 2000): yes ^j

SMILES: Nc1ncnc2c1ncn2[C@@H]1O[C@H](CO)[C@@H](O)[C@H]1O [adenosine]
- Tb response (hypothermia) (mice [3]; adenosine 100 mg/kg, i.p., Adora1−/−;Adora3−/− mice): robust hypothermia

SMILES: COCCOc1ccc(N2CCN(CCn3ncc4c3nc(N)n3nc(-c5ccco5)nc43)CC2)cc1 [preladenant]
- Tb (mice [3]; [22]): increase in Tb
- locomotor activity (mice [3]; [22]): increased locomotor activity

SMILES: CNC(=O)c1cnn(-c2nc(N)c3ncn([C@@H]4O[C@H](CO)[C@@H](O)[C@H]4O)c3n2)c1 [regadenoson, 1-[6-amino-9-[(2R,3R,4S,5R)-3,4-dihydroxy-5-(hydroxymethyl)oxolan-2-yl]purin-2-yl]-N-methylpyrazole-4-carboxamide]
- Ki (mouse A1AR [1]): 7.75 ± 0.05 nM
- binding to A1AR more tightly than to A2AAR (mouse A1AR [1]; mouse binding, Table 1): 10 fold
- binding to mouse A1AR better than human A1AR (mouse A1AR [1]; mouse vs human A1AR (human value Gao et al., 2001)): > 1000 fold
- Ki (mouse A2AAR): 77.2 ± 6.3 nM
- inhibition at 10 µM (mouse A3AR [2]; read-out: % inhibition at 10 μM, mouse A3AR): 7 ± 2%
- Ki (A2BAR [13]; ref Gao et al., 2001): > 100000 nM
